For experiment [1], the system named is Protein Kinase A. The experiment is described as follows: SCT-stimulated respiration in primary brown adipocytes after pretreatment with the PKA inhibitor H89. The following applies: H89 50 μM pretreatment (FIG. 10F). It counts as cell-based, Mus musculus. On the procedure: F: Thermogenic effect of SCT depends on Protein Kinase A activity. Fold increase of basal leak respiration after stimulation with ISO, SCT and vehicle (assay medium) w/o proteinkinase A inhibitor H89 (50 μM). Inhibitor was injected together with olgio prior to addition of stimulators.
(§1) Method: To test whether SCT can activate thermogenesis in brown adipocytes, we measured UCP1-mediated uncoupled respiration in cultured adherent intact primary brown adipocytes, according to a protocol recently established in our lab (Li Y, Fromme T, Schweizer S, Schöttl T, Klingenspor M. EMBO Rep. 2014 October; 15(10):1069-76. doi: 10.15252/embr.201438775; Li Y, Fromme T, Klingenspor M. Meaningful respirometric measurements of UCP1-mediated thermogenesis. Biochimie. 2017 March; 134:56-61. doi: 10.1016/j.biochi.2016.12.005.). The cellular oxygen consumption rate (OCR) of primary adipocytes was determined using an XF96 Extracellular Flux Analyzer (Seahorse Bioscience). […]
All respiration assays were performed in the presence of bovine serum albumin to buffer free fatty acid levels in the respiration medium. Basal respiration was measured in untreated cells. […] UCP1 mediated uncoupled respiration was determined after isoproterenol or secretin stimulation. Maximum respiratory capacity was assessed after FCCP (Sigma-Aldrich) addition (1 μM). […]

Experiment [2] deals with primary brown adipocytes. The experiment can be described thus: Microplate respirometry (oxygen consumption rate) in differentiated primary brown adipocytes of wildtype mice. It counts as cell-based, Mus musculus. On the procedure: For culturing primary adipocytes male 129S1/SvImJ mice ([…] or UCP1-KO mice and wildtype littermates) at the age of 5-6 weeks were used for the dissection of inguinal and epidydimal white adipose tissue and interscapular brown adipose tissue depots. The tissue was carefully minced and treated with collagenase for 45 min at 37° C. The homogenate was filtered through a 250 μm nylon mesh and centrifuged at 500 g to collect the stromal vascular fraction (SVF). The SVF cell pellet was rinsed and seeded into XF96 V3-PS cell culture microplate (Seahorse Bioscience). After reaching confluency, induction medium containing 10% fetal bovine serum (FBS), 0.5 mM isobutylmethylxanthine, 125 nM indomethacin, 1 mM dexamethasone, 850 nM insulin and 1 nM T3 was added. After 2 days of induction, cells were maintained in differentiation media (10% FBS, 850 nM insulin and 1 nM T3). Medium was changed every two days. Respiration was measured on day 7 of differentiation. For determination of mRNA levels cells were stimulated at the 7th day of differentiation for 6 hours with secretin (rat, Tocris, Art Nr 1919) or isoproterenol (Sigma-Aldrich, Art Nr. 16504-100MG) and harvested subsequently. Oxygen consumption rate (OCR) was measured at 37° C. using a microplate respirometer (XF96 extracellular flux analyzer, Seahorse Bioscience). At day 7, the differentiation medium was replaced with prewarmed, unbuffered assay medium (DMEM basal medium supplemented with 25 mM glucose, 2 mM sodium pyruvate, 31 mM NaCl, 2 mM GlutaMax and 15 mg/l phenol red, pH 7.4) containing 2% of essentially fatty acid free bovine serum albumin (BSA), and incubated at 37° C. in a room air incubator for 1 h. Basal respiration was measured in untreated cells. Coupled respiration was inhibited by oligomycin treatment (5 μM). […] Maximum respiratory capacity was assessed after FCCP (Sigma-Aldrich) addition (1 μM). Finally, mitochondrial respiration was blocked by antimycin A (Sigma-Aldrich) (5 μM) treatment and the residual OCR was considered to be due to non-mitochondrial reactions. Oxygen consumption rates were calculated using the Seahorse XF-96 software. Data were exported and reconstructed in GraphPad Prism 4.0 software. For each condition the lowest OCR after antimycin A addition was subtracted from all other values. Respiration rates following oligomycin addition were defined as basal OCR. For induction of OCR by isoproterenol, secretin or FCCP the highest values measured after addition of the respective molecule was used. The “OCR in % of basal OCR” and “OCR in % of FCCP OCR” were calculated as follows: Method: To test whether SCT can activate thermogenesis in brown adipocytes, we measured UCP1-mediated uncoupled respiration in cultured adherent intact primary brown adipocytes, according to a protocol recently established in our lab (Li Y, Fromme T, Schweizer S, Schöttl T, Klingenspor M. EMBO Rep. 2014 October; 15(10):1069-76. doi: 10.15252/embr.201438775; […]. Meaningful respirometric measurements of UCP1-mediated thermogenesis. Biochimie. 2017 March; 134:56-61. doi: 10.1016/j.biochi.2016.12.005.). The cellular oxygen consumption rate (OCR) of primary adipocytes was determined using an XF96 Extracellular Flux Analyzer (Seahorse Bioscience). Briefly, primary adipocytes were cultured and differentiated in XF96 microplates. At day 7 of differentiation, cells were washed once with prewarmed, unbuffered assay medium (DMEM basal medium supplemented with 25 mM glucose, 31 mM NaCl, 2 mM GlutaMax and 15 mg/l phenol red, pH 7.4) (basal assay medium) and then the medium was replaced with basal assay medium containing 1-2% essentially fatty acid free bovine serum albumin (BSA), and incubated at 37° C. in a room air incubator for 1 h. The drug injections ports of the sensor cartridges were loaded with the assay reagents at 10× in basal assay medium (no BSA). All respiration assays were performed in the presence of bovine serum albumin to buffer free fatty acid levels in the respiration medium. […]

For experiment [3], the system named is primary brown adipocytes from UCP1 knockout mice. The experiment can be described thus: Microplate respirometry (oxygen consumption rate) in primary brown adipocytes from UCP1 knockout mice. It counts as cell-based, Mus musculus. The procedure: For culturing primary adipocytes male 129S1/SvImJ mice ([…] or UCP1-KO mice and wildtype littermates) at the age of 5-6 weeks were used for the dissection of inguinal and epidydimal white adipose tissue and interscapular brown adipose tissue depots. The tissue was carefully minced and treated with collagenase for 45 min at 37° C. The homogenate was filtered through a 250 μm nylon mesh and centrifuged at 500 g to collect the stromal vascular fraction (SVF). The SVF cell pellet was rinsed and seeded into XF96 V3-PS cell culture microplate (Seahorse Bioscience). After reaching confluency, induction medium containing 10% fetal bovine serum (FBS), 0.5 mM isobutylmethylxanthine, 125 nM indomethacin, 1 mM dexamethasone, 850 nM insulin and 1 nM T3 was added. After 2 days of induction, cells were maintained in differentiation media (10% FBS, 850 nM insulin and 1 nM T3). Medium was changed every two days. Respiration was measured on day 7 of differentiation. For determination of mRNA levels cells were stimulated at the 7th day of differentiation for 6 hours with secretin (rat, Tocris, Art Nr 1919) or isoproterenol (Sigma-Aldrich, Art Nr. 16504-100MG) and harvested subsequently. Oxygen consumption rate (OCR) was measured at 37° C. using a microplate respirometer (XF96 extracellular flux analyzer, Seahorse Bioscience). At day 7, the differentiation medium was replaced with prewarmed, unbuffered assay medium (DMEM basal medium supplemented with 25 mM glucose, 2 mM sodium pyruvate, 31 mM NaCl, 2 mM GlutaMax and 15 mg/l phenol red, pH 7.4) containing 2% of essentially fatty acid free bovine serum albumin (BSA), and incubated at 37° C. in a room air incubator for 1 h. Basal respiration was measured in untreated cells. […] Maximum respiratory capacity was assessed after FCCP (Sigma-Aldrich) addition (1 μM). […] Oxygen consumption rates were calculated using the Seahorse XF-96 software. […] For induction of OCR by isoproterenol, secretin or FCCP the highest values measured after addition of the respective molecule was used. The “OCR in % of basal OCR” and “OCR in % of FCCP OCR” were calculated as follows: Method: To test whether SCT can activate thermogenesis in brown adipocytes, we measured UCP1-mediated uncoupled respiration in cultured adherent intact primary brown adipocytes, according to a protocol recently established in our lab (Li Y, Fromme T, Schweizer S, Schöttl T, Klingenspor M. EMBO Rep. 2014 October; 15(10):1069-76. doi: 10.15252/embr.201438775; […]. Meaningful respirometric measurements of UCP1-mediated thermogenesis. Biochimie. 2017 March; 134:56-61. doi: 10.1016/j.biochi.2016.12.005.). The cellular oxygen consumption rate (OCR) of primary adipocytes was determined using an XF96 Extracellular Flux Analyzer (Seahorse Bioscience). […]

Experiment [4] relates to UCP1 expression. The experiment can be described thus: UCP1 mRNA expression (qRT-PCR) in primary adipocytes from inguinal white adipose tissue. It counts as cell-based, Mus musculus. To be noted: 0.1 μM secretin or 0.5 μM isoproterenol, 6 hours, normalized to TFIIB (FIG. 4A). The procedure: (§2) For culturing primary adipocytes male 129S1/SvImJ mice ([…] or UCP1-KO mice and wildtype littermates) at the age of 5-6 weeks were used for the dissection of inguinal and epidydimal white adipose tissue and interscapular brown adipose tissue depots. The tissue was carefully minced and treated with collagenase for 45 min at 37° C. The homogenate was filtered through a 250 μm nylon mesh and centrifuged at 500 g to collect the stromal vascular fraction (SVF). The SVF cell pellet was rinsed and seeded into XF96 V3-PS cell culture microplate (Seahorse Bioscience). After reaching confluency, induction medium containing 10% fetal bovine serum (FBS), 0.5 mM isobutylmethylxanthine, 125 nM indomethacin, 1 mM dexamethasone, 850 nM insulin and 1 nM T3 was added. […] Respiration was measured on day 7 of differentiation. […] RNA was eluted in 50 μl nuclease-free water and RNA concentration was determined spectrophotometrically (Infinite 200 PRO NanoQuant, Tecan, Männedorf/Switzerland). Reverse transcription into cDNA was performed with 500 ng RNA in a final volume of 10 μl (Quantitect Reverse Transcription Kit, Quiagen, Hilden/Germany). qRT-PCR was conducted on 384 well plates in a total volume of 12.5 μl comprising 6.25 μl SensiMix SYBR No-ROX (Bioline, London/UK), 250 nM forward and reverse primers, and 1 μl template cDNA (LightCycler 480 System, Roche Diagnostics, Rotkreuz/Switzerland). […]
On the technique in general: Real-time PCR tracks product formation cycle by cycle.

In experiment [5] the test system is UCP1 expression. The experiment can be described thus: UCP1 mRNA expression (qRT-PCR) in primary adipocytes from interscapular brown adipose tissue. To be noted: 0.1 μM secretin or 0.5 μM isoproterenol, 6 hours, normalized to TFIIB (FIG. 4B). It counts as cell-based, Mus musculus. On the procedure:
as §2

The test system of experiment [6] is adrenergic β-receptors. The experiment can be described thus: SCT- and ISO-stimulated respiration in primary brown adipocytes after propranolol pretreatment. It counts as cell-based, Mus musculus. The procedure:
SCT- and ISO-stimulated respiration after 1 h pretreatment with different concentrations propranolol, a non-selective blocker of adrenergic β-receptors.
as §1, with “Bioscience). Briefly, primary adipocytes were cultured and differentiated in XF96 microplates.” for “Bioscience).”
All respiration assays were performed in the presence of bovine serum albumin to buffer free fatty acid levels in the respiration medium. Basal respiration was measured in untreated cells. […] UCP1 mediated uncoupled respiration was determined after isoproterenol or secretin stimulation. Maximum respiratory capacity was assessed after FCCP (Sigma-Aldrich) addition (1 μM). […] Oxygen consumption rates were automatically calculated by the Seahorse XF-96 software. […]

The target in experiment [7] is secretin receptor (mouse, on primary brown adipocytes) (mouse) (UniProt Q5FWI2). The experiment can be described thus: cell-based or functional assay.
Chain of UniProt Q5FWI2 (Q5FWI2 29-447): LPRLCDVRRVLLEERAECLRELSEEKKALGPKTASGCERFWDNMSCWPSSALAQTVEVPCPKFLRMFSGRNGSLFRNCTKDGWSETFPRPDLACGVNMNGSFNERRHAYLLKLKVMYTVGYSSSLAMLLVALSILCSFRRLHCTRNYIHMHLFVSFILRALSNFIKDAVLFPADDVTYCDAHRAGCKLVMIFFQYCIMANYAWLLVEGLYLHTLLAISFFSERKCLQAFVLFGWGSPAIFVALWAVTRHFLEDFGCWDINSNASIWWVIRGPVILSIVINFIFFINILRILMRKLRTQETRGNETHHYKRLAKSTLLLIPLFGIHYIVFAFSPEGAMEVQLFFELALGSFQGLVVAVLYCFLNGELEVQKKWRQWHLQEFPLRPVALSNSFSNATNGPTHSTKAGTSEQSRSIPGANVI

On to `O=S(=O)(NCCNCC=Cc1ccc(Br)cc1)c1cccc2cnccc12` [H89, N-[2-[[3-(4-Bromophenyl)-2-propenyl]amino]ethyl]-5-isoquinolinesulfonamide], for which the “effect on the thermogenic effect of SCT” value in experiment [1] is reported as “completely blocked the thermogenic effect of SCT”.

With `CC(C)NCC(O)c1ccc(O)c(O)c1` (stereo not shown) [isoproterenol, reference compound], the “increase of OCR above basal OCR” value in experiment [2] (0.5 μM, after oligomycin, day 7 of differentiation (FIG. 2B)) was “about 200%”. Besides, the “uncoupled OCR as share of maximal uncoupled OCR induced by FCCP” value in experiment [2] (0.5 μM, day 7 of differentiation (FIG. 2C)) was “about 75%”. Moreover, the “induction of oxygen consumption in cells from wildtype control mice” value in experiment [2] (129/S1 background, FIG. 3) is given as “increase in oxygen consumption”. Also, the “stimulation of UCP1-mediated thermogenesis (uncoupled respiration)” value in experiment [2] (SCT 10 nM, ISO 500 nM, N=5 (FIG. 10A)) is listed as “activate UCP1-dependent thermogenesis”. Further, in experiment [3] (129/S1 background, FIG. 3), the “induction of respiration in cells from UCP1 knockout mice” value is listed as “lacking”. Besides, in experiment [3] (SCT 10 nM, ISO 500 nM (FIG. 10B)), the “response of respiration in UCP1 knockout brown adipocytes” value is “did not respond”. Also, the “UCP1 mRNA expression in white adipocytes versus PBS” value in experiment [4] is “induction of UCP1 expression”. Also, the “UCP1 mRNA expression in brown adipocytes versus PBS” value in experiment [5] is “induced UCP1 expression to a similar level as secretin”.

For `CC(C)NCC(O)COc1cccc2ccccc12` (stereo not shown) [propranolol], the “effect on SCT stimulated respiration” value in experiment [6] (1 h pretreatment with propranolol (1 μM; different concentrations in FIG. 10D)) is reported as “did not attenuate SCT stimulated respiration”. In addition, in experiment [6] (1 h pretreatment with propranolol, dose dependent (FIG. 10D)), the “effect on ISO stimulated respiration” value is “blocking the effect of ISO”.

In experiment [7], “secretin (rat, Tocris, Art Nr 1919) (from UniProt P11384 33-59) (peptide)” returned an oxygen consumption rate (OCR) in primary brown adipocytes, increase above basal OCR, 0.5 µM secretin (% above basal OCR) of 200 and an uncoupled OCR in primary brown adipocytes as a share of maximal uncoupled OCR induced by FCCP, 0.5 µM secretin (% of maximal uncoupled OCR) of 75.

(Values after patent publication US20200179488A1, “Secretin Receptor Agonists to Treat Diseases or Disorders of Energy Homeostasis” (Technische Universität München, priority 2016, published 2020).)
